Laboratory results from US20240360114A1 (SIRONAX LTD., priority 2021, published 2024).

Each molecule was assayed on HT-1080 cells (assay: HT-1080 cell viability assay (ferroptosis induced by RSL3, Cell Titer-Glo)). Details: Homo sapiens, HT-1080, 20 h, ferroptosis inducer RSL3, 20 hours, ferroptosis inhibitory activity, Table 2.
Type: cell-based
Method in brief: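 Cells seeded overnight, then co-treated with RSL3 and compound (3-fold, 10-point dilution, top 1.1 μM) for 20 hours. Viability by CellTiter-Glo luminescence, normalized to untreated controls; EC50 from sigmoidal non-linear regression.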

SMILES	EC50
Cc1nc(N2CCC(N3C[C@@H](C)O[C@@H](C)C3)CC2)ccc1NC1CC2(CC(N)C2)C1 (stereo partly drawn) [Compound 537, N2-(6-(4-((2S,6R)-2,6-dimethylmorpholino)piperidin-1-yl)-2-methylpyridin-3-yl)spiro[3.3]heptane-2,6-diamine]	100 to 1000 nM
Cc1nc(N2CCOCC2)ccc1NC1C2CC3CC1CC(CN)(C3)C2 (stereo not drawn) [Compound 538A, N-((2r,5s)-5-(aminomethyl)adamantan-2-yl)-2-methyl-6-morpholinopyridin-3-amine]	0.1 to 100 nM
Cc1nc(N2C[C@@H](C)N(CC(F)(F)F)[C@@H](C)C2)ccc1NC1C2CC3CC1CC(N)(C3)C2 (stereo partly drawn) [Compound 540, N4-(6-((3R,5S)-3,5-dimethyl-4-(2,2,2-trifluoroethyl)piperazin-1-yl)-2-methylpyridin-3-yl)adamantane-1,4-diamine]	0.1 to 100 nM
Cc1nc(N2C[C@@H](C)N(CC(F)(F)F)[C@@H](C)C2)ccc1NC1CCC(N)C1 (stereo partly drawn) [Compound 541, N1-(6-((3R,5S)-3,5-dimethyl-4-(2,2,2-trifluoroethyl)piperazin-1-yl)-2-methylpyridin-3-yl)cyclopentane-1,3-diamine]	0.1 to 100 nM
Cc1nc(N2C[C@@H](C)N(CC(F)(F)F)[C@@H](C)C2)ccc1NC1CCC(N)CC1 (stereo partly drawn) [Compound 542]	0.1 to 100 nM
Cc1nc(N2C[C@@H](C)N(CC(F)(F)F)[C@@H](C)C2)ccc1NC[C@H]1CC[C@H](N)CC1 [Compound 543, N-(((1r,4R)-4-aminocyclohexyl)methyl)-6-((3R,5S)-3,5-dimethyl-4-(2,2,2-trifluoroethyl)piperazin-1-yl)-2-methylpyridin-3-amine]	0.1 to 100 nM
CCc1nc(N2C[C@@H](C)O[C@@H](C)C2)ccc1NC[C@H]1CC[C@H](N)CC1 [Compound 544, N-(((1r,4R)-4-aminocyclohexyl)methyl)-6-((2S,6R)-2,6-dimethylmorpholino)-2-ethylpyridin-3-amine]	0.1 to 100 nM
CCc1nc(N2C[C@@H](C)O[C@@H](C)C2)ccc1NC1CC2(CC(N)C2)C1 (stereo partly drawn) [Compound 545, N^2-(6-((2S,6R)-2,6-dimethylmorpholino)-2-ethylpyridin-3-yl)spiro[3.3]heptane-2,6-diamine]	0.1 to 100 nM
CC[C@@H]1CN(c2ccc(NC3CC4(CC(N)C4)C3)c(C)n2)C[C@H](C)O1 (stereo partly drawn) [Compound 546, N2-(6-((2R,6S)-2-ethyl-6-methylmorpholino)-2-methylpyridin-3-yl)spiro[3.3]heptane-2,6-diamine]	0.1 to 100 nM
CC[C@@H]1CN(c2ccc(NC3CC4(CC(N)C4)C3)c(C)n2)C[C@@H](C)O1 (stereo partly drawn) [Compound 547, N^2-(6-((2R,6R)-2-ethyl-6-methylmorpholino)-2-methylpyridin-3-yl)spiro[3.3]heptane-2,6-diamine]	0.1 to 100 nM
CC[C@@H]1CN(c2ccc(NC[C@H]3CC[C@H](N)CC3)c(C)n2)C[C@@H](CC)O1 [Compound 548, N-(((1r,4R)-4-aminocyclohexyl)methyl)-6-((2R,6R)-2,6-diethylmorpholino)-2-methylpyridin-3-amine]	0.1 to 100 nM
CC[C@@H]1CN(c2ccc(NC3CC4(CC(N)C4)C3)c(C)n2)C[C@H](CC)O1 (stereo partly drawn) [Compound 549]	0.1 to 100 nM
CC[C@@H]1CN(c2ccc(NC3CC4(CC(N)C4)C3)c(C)n2)C[C@@H](CC)O1 (stereo partly drawn) [Compound 550]	0.1 to 100 nM
CC[C@@H]1CN(c2ccc(NC3CCC(N)CC3)c(C)n2)C[C@H](C)O1 (stereo partly drawn) [Compound 551, N1-(6-((2R,6S)-2-ethyl-6-methylmorpholino)-2-methylpyridin-3-yl)cyclohexane-1,4-diamine]	100 to 1000 nM
CC[C@@H]1CN(c2ccc(NC3CCC(N)CC3)c(C)n2)C[C@@H](CC)O1 (stereo partly drawn) [Compound 552, N1-(6-((2R,6R)-2,6-diethylmorpholino)-2-methylpyridin-3-yl)cyclohexane-1,4-diamine]	0.1 to 100 nM
Cc1nc(N2CC(C)OC(C)C2)ccc1NC1CC2CCC1CC2N (stereo not drawn) [Compound 553, N2-(6-(2,6-dimethylmorpholino)-2-methylpyridin-3-yl)bicyclo[2.2.2]octane-2,5-diamine]	100 to 1000 nM
Cc1nc(N2CC(C)N(C(=O)C(F)(F)F)C(C)C2)ccc1NC1CC2(CC(N)C2)C1 (stereo not drawn) [Compound 554, 1-(4-(5-((6-aminospiro[3.3]heptan-2-yl)amino)-6-methylpyridin-2-yl)-2,6-dimethylpiperazin-1-yl)-2,2,2-trifluoroethan-1-one]	0.1 to 100 nM
CC(=O)N1C(C)CN(c2ccc(NC3CC4(CC(N)C4)C3)c(C)n2)CC1C (stereo not drawn) [Compound 555, 1-(4-(5-((6-aminospiro[3.3]heptan-2-yl)amino)-6-methylpyridin-2-yl)-2,6-dimethylpiperazin-1-yl)ethan-1-one]	0.1 to 100 nM
Cc1nc(N2CC[Si](C)(C)CC2)ccc1NC1CC2(CC(N)C2)C1 (stereo not drawn) [Compound 556, N2-(6-(4,4-dimethyl-1,4-azasilinan-1-yl)-2-methylpyridin-3-yl)spiro[3.3]heptane-2,6-diamine]	0.1 to 100 nM
Cc1nc(NCC(F)(F)F)ccc1NC1CC2(CC(N)C2)C1 (stereo not drawn) [Compound 557, N3-(6-aminospiro [3.3]heptan-2-yl)-6-methyl-N2-(2,2,2-trifluoroethyl)pyridine-2,5-diamine]	0.1 to 100 nM
Cc1nc(N(C)CC(F)(F)F)ccc1NC1CC2(CC(N)C2)C1 (stereo not drawn) [Compound 558, N^5-(6-aminospiro [3.3]heptan-2-yl)-N2,6-dimethyl-N2-(2,2,2-trifluoroethyl)pyridine-2,5-diamine]	0.1 to 100 nM
N[C@H]1CC[C@H](CNc2ccc(C3CCN(CC(F)(F)F)CC3)cc2)CC1 [Compound 559, N-(((1r, 4r)-4-aminocyclohexyl)methyl)-4-(1-(2,2,2-trifluoroethyl)piperidin-4-yl)aniline]	0.1 to 100 nM
NC1CC2(C1)CC(Nc1ccc(C3CCN(CC(F)(F)F)CC3)cc1)C2 (stereo not drawn) [Compound 560, N2-(4-(1-(2,2,2-trifluoroethyl)piperidin-4-yl)phenyl)spiro[3.3]heptane-2,6-diamine]	0.1 to 100 nM
NC1CCC(Nc2ccc3nc(N4CCC(C(F)(F)F)CC4)ccc3c2)CC1 (stereo not drawn) [Compound 562, N-(2-(4-(trifluoromethyl)piperidin-1-yl)quinolin-6-yl)cyclohexane-1,4-diamine]	0.1 to 100 nM
NC(=O)C1CCC(Nc2ccc3cc(N4CCC(C(F)(F)F)CC4)ccc3c2)CC1 (stereo not drawn) [Compound 563, 4-((6-(4-(trifluoromethyl)piperidin-1-yl)naphthalen-2-yl)amino)cyclohexane-1-carboxamide]	0.1 to 100 nM
CC1CN(c2ccc3cc(NC4CC5(CC(N)C5)C4)ccc3c2)CC(C)O1 (stereo not drawn) [Compound 564, N^2-(6-(2,6-dimethylmorpholino)naphthalen-2-yl)spiro[3.3]heptane-2,6-diamine]	0.1 to 100 nM

Further lines, results first:

EC50	SMILES
0.1 to 100 nM	C[C@@H]1CN(c2ccc3cc(NC4CC5(CC(N)C5)C4)ccc3n2)C[C@H](C)O1 (stereo partly drawn) [Compound 565, N2-(2-((2S,6R)-2,6-dimethylmorpholino)quinolin-6-yl)spiro[3.3]heptane-2,6-diamine]
0.1 to 100 nM	CC1CN(c2ccc3cc(NC4CC5(CC(N)C5)C4)ccc3n2)CC(C)N1C(=O)C(F)(F)F (stereo not drawn) [Compound 566]
0.1 to 100 nM	CC1CN(c2ccc3cc(NC4CC5(CC(N)C5)C4)ccc3n2)CC(C)N1CC(F)(F)F (stereo not drawn) [Compound 567, N2-(2-(3,5-dimethyl-4-(2,2,2-trifluoroethyl)piperazin-1-yl)quinolin-6-yl)spiro-[3.3]heptane-2,6-diamine]
0.1 to 100 nM	Cc1nc(N2CC(C)SC(C)C2)ccc1NC1CC2(CC(N)C2)C1 (stereo not drawn) [Compound 568, N2-(6-(2,6-dimethylthiomorpholino)-2-methylpyridin-3-yl)spiro[3.3]heptane-2,6-diamine]
0.1 to 100 nM	Cc1nc(N2CCSCC2)ccc1NC1CC2(CC(N)C2)C1 (stereo not drawn) [Compound 569, N^2-(2-methyl-6-thiomorpholinopyridin-3-yl) spiro[3.3]heptane-2,6-diamine]
0.1 to 100 nM	CC1CN(c2ccc3cc(NC4CC5(CC(N)C5)C4)ncc3c2)CC(C)O1 (stereo not drawn) [Compound 570, N2-(7-(2,6-dimethylmorpholino)isoquinolin-3-yl)spiro[3.3]heptane-2,6-diamine]
0.1 to 100 nM	CC1CN(c2ncc3cc(NC4CC5(CC(N)C5)C4)ccc3n2)CC(C)O1 (stereo not drawn) [Compound 571, N^2-(2-(2,6-dimethylmorpholino)quinazolin-6-yl)spiro[3.3]heptane-2,6-diamine]
0.1 to 100 nM	NC1CCC(Nc2ccc3cc(N4CCC(C(F)(F)F)CC4)cnc3c2)CC1 (stereo not drawn) [Compound 572, N1-(3-(4-(trifluoromethyl)piperidin-1-yl)quinolin-7-yl)cyclohexane-1,4-diamine]
0.1 to 100 nM	NC1CCC(Nc2ccc3nc(N4CCC(C(F)(F)F)CC4)cnc3c2)CC1 (stereo not drawn) [Compound 573, N1-(2-(4-(trifluoromethyl)piperidin-1-yl)quinoxalin-6-yl)cyclohexane-1,4-diamine]

Same assay, conditions: Homo sapiens, HT-1080, 20 h, ferroptosis inducer RSL3, 20 hours, ferroptosis inhibitory activity, Table 3

EC50	SMILES
0.1 to 100 nM	Cc1cc(NC2CC3(CC(N)C3)C2)ccc1N1CCN(CC(F)(F)F)CC1 (stereo not drawn) [Compound 574, N^2-(3-methyl-4-(4-(2,2,2-trifluoroethyl)piperazin-1-yl)phenyl)spiro/3.3/heptane-2.6-diamine]
0.1 to 100 nM	CC[C@@H]1CN(c2ccc(NC3CC4(C3)CC(C(N)=O)C4)c(C)n2)C[C@H](CC)O1 (stereo partly drawn) [Compound 575, 6-((6-((2S,6R)-2,6-diethylmorpholino)-2-methylpyridin-3-yl)amino)spiro[3.3]heptane-2-carboxamide]
0.1 to 100 nM	CC[C@@H]1CN(c2ccc(NC3CC(N)C3)c(C)n2)C[C@H](CC)O1 (stereo partly drawn) [Compound 576, N1-(6-((2S,6R)-2,6-diethylmorpholino)-2-methylpyridin-3-yl)cyclobutane-1,3-diamine]

Same assay, conditions: Homo sapiens, ferroptosis inducer RSL3, 20 hours, ferroptosis inhibitory activity, Table 2

SMILES	EC50
NC1CCC(Nc2ccc3cc(N4CCC(C(F)(F)F)CC4)ccc3c2)CC1 (stereo not drawn) [Compound 561, N1-(6-(4-(trifluoromethyl)piperidin-1-yl)naphthalen-2-yl)cyclohexane-1,4-diamine]	0.1 to 100 nM
